# Source: patent publication US6953783B1, “Modulation of gene expression by combination therapy” (MethylGene, Inc., priority 1998, dated 2005)
# d = 2'-deoxy (DNA); m = 2'-O-methyl
# How the values were obtained:
# p16 tumor suppressor = assay: Reactivation of p16 expression in T24 cells, oligonucleotide and/or 5-aza-dC (IP/Western, densitometry); format: cell-based, human; conditions: densitometry of FIG. 14 Western, 40 nM oligonucleotide and/or 0.1 μM 5-aza-dC
# Experimental: For this purpose, one day before transfection, T24 cells (ATCC No. HTB-4) were plated onto 10 cm plates at 4×10^5 cells/dish. At the time of transfection, cells were washed with phosphate buffered saline (PBS) and 5 ml of optimem media (Gibco-BRL) containing 6.25 μl/ml lipofectin transfection reagent (Gibco-BRL) was added. […] These oligonucleotides were chemically modified as follows: A equals 2'-deoxyriboadenosine; C equals 2'-deoxyribocytidine; G equals 2'-deoxyriboguanosine; T equals 2'-deoxyribothymidine; Aequals riboadenosine; U equals uridine; C equals ribocytidine; and G equals riboguanosine. The underlined bases were 2'-methoxyribose substituted nucleotides. Non-underlined bases indicate deoxyribose nucleosides. The backbone of each oligonucleotide consisted of a phosphorothioate linkage between adjoining nucleotides. The oligonucleotides were diluted to the desired concentration from a 0.1 mM stock solution in the transfection media. After a four-hour incubation at 37° C. in a 5% CO2 incubator, the plates were washed with PBS and 10 ml of fresh cell culture media was added. Following an additional two-hour incubation at 37° C., freshly prepared 5-aza-2'-deoxycytidine was added to the tissue culture medium. Cells were transfected for a total of three days and split every other day to ensure optimal transfection conditions. At the indicated time points, cells were harvested by trypsinization and pelleted by centrifugation at 1100 rpm and 4° C. for five minutes. The cell pellet was resuspended in PBS and counted on a Coulter Particle Counter to determine the total cell number. Following a second centrifugation, the PBS was aspirated from the cell pellet and the pellet was frozen at 70° C. […] The lysed cells were incubated on ice for 10 minutes and cell particulate matter was removed by centrifugation at 10,000 rpm for 10 minutes at 4° C. The protein concentration for each sample was determined using the Bio Rad Protein Assay and 600 μg of protein was used for each immunoprecipitation. […]
# [1] = mammals; cited from earlier work
# [2] = system: Colo 205 human colon cancer cells; assay: Colo 205 tumor growth in nude mice; format: in vivo, BALB/c nude mice; conditions: i.v. daily for seven days; 0.5 mg/kg MG98 and/or 0.1 mg/kg 5-aza-dC
# Experimental: Eight to ten week old female BALB/c nude mice (Taconic Labs, Great Barrington, N.Y.) were injected subcutaneously in the flank area with 2×10^6 preconditioned Colo 205 human colon cancer cells (ATCC No. CCL-222). Preconditioning of these cells was done by a minimum of three consecutive tumor transplantations in the same strain of nude mice. Subsequently, tumor fragments of approximately 30 mgs were excised and implanted subcutaneously in mice, in the left flank area under Forene anesthesia (Abbott Labs., Geneva, Switzerland). […] Tumor volume was calculated according to standard methods every second day post infusion (see methods, e.g., in Meyer et al. (1989) Int. J. Cancer 43: 851-856).
# thymidylate synthase = conditions: T24 cells; 25 or 50 nM, 72 hours
# Source text: After treatment, the cells were lysed and analyzed by Western blotting analysis for thymidylate synthase protein levels using a thymidylase synthase specific antibody (commercially available from Chemicon Int., Temecula, Calif.).
# p16^ink4A promoter = assay: Methylation specific PCR and bisulfite genomic sequencing of the p16^ink4A promoter in T24 cells; format: cell-based, human; conditions: for demethylation of the p16^ink4A promoter region (MSP): treated 3, 5, 9 or 10 days
# Experimental: To identify changes in the methylation status of the p16^ink4A promoter induced by MG88 treatment, methylation specific PCR (MSP) and bisulfite genomic sequencing was performed as previously described ([…] et al. (1994) Nat. Gen. 8: 27-32; Frommer et al. (1991) Proc. Nat. Acad. Sci. USA 89: […]). […] Briefly, the Oncor p16 detection system was used (commercially available from Oncor, Gaithersburg, Md.). PCR was performed in a total volume of 25 μl under the following conditions: 100 ng bisulfate-treated DNA (Oncor),10 mM Tris-HCl, pH 8.3, […], 1.5 mM MgCl2, 250 μM dNTPs, 80 ng of each of the following primers ([NT] sense (SEQ ID NO: 79) and [NT] antisense (SEQ ID NO: 80)) and 1 unit of AmpliTaq Gold (Perkin-Elmer). The denaturation cycle was 95° C. for 12 min followed by 35 cycles at 95° C. for 45 seconds, 60° C. for 45 seconds, and 72° C. for 60 seconds, and an elongation cycle of 72° C. for 10 minutes. the PCR product (5 μl) was analyzed on a 2% agarose gel. The unmethylated (U) and demethylated (D) primers (commercially available from Oncor) were used at the same conditions as the specific primers.
# DNA MeTase protein [3] = assay: DNA MeTase protein levels by Western blotting in A549 cells; format: cell-based, human; conditions: 20, 40 or 80 nM with lipofectin, 4 h on day 0 and day 1, harvest day 2
# Source text: (§1) MG88 was next tested for an ability to inhibit DNA MeTase mRNA in two human neoplastic cells, A549 (human non-small cell lung carcinoma cells) and T24 (human bladder cancer cells). […] MG208 was modified as follows: A equals 2′-deoxyriboadenosine; C equals 2′-deoxyribocytidine; G equals 2′-deoxyriboguanosine; T equals 2′-deoxyribothymidine; A equals riboadenosine; U equals uridine; C equals ribocytidine; and G equals riboguanosine. The underlined bases were 2′-methoxyribose substituted nucleotides. Non-underlined bases indicate deoxyribose nucleosides. The backbone of MG208 consisted of a phosphorothioate linkage between adjoining nucleotides.
# The MG88 and MG208 oligonucleotides were diluted to the desired concentration from a 0.1 mM stock solution in the transfection media. Cells were exposed to oligonucleotide plus lipofectin (or lipofectin only) for four hours on day 0 and four hours on day 1 (after each four hour treatment, cells were returned to complete media). On day 2 (i.e., 48 hours after the first treatment on day 0), cells were harvested, whole cell lysates were prepared, and DNA MeTase protein levels were analyzed by Western blotting analysis with a DNA MeTase-specific rabbit polyclonal antibody (generated according to standard techniques of a glutathione S -transferase fusion protein containing the first 10 kDa amino terminus from DNA methyltransferase protein). […]
# pRb = assay: Western blotting for phosphorylated pRb in T24 cells; format: cell-based, human; conditions: T24 cells reactivated to express p16^ink4A after transfection
# p21^WAF1 = p21^WAF1 protein levels by Western blotting in T24 cells; format: cell-based, human; conditions: for p21^WAF1 protein level: 40 nM or 75 nM, 24 or 48 hours
# Experimental: Another member of the cyclin-dependent kinase inhibitor (CDKI) family, p21^WAF1, inhibits a wide range of cyclin/CDK complexes involved in G1 and S phase progression (Tam et al. (1994) Cancer Res. 54: 5816-5820; Baghdassarian and French (1996) Hematol. Cell Ther. 88: 313-323; Gotz et al. (1996) Oncogene 13: 391-398). […] To do this, DNA MeTase, p21^WAF1, and α-actin protein levels were measured by Western blotting analysis in T24 cells that had been treated for either 24 hours (i.e., one 4 hour transfection time) or 48 hours (i.e., two […] transfections 24 hours apart) with either 40 nM or 75 nM of either MG88 or MG208.
# T24 cells were also treated for 24 hours (i.e., four hour transfection) with lipofectin only, or lipofectin plus 20, 40, or 80 nM of MG88 or MG208. After treatment, cell lysates were prepared and analyzed by Western blotting analysis with α-actin-specific antibody or p21-specific antibody.
# T24 cells = assay: T24 cell proliferation during and after treatment (cell counting); format: cell-based, human; conditions: for cell proliferation during treatment: days 0-5, relative to lipofectin
# Source text: To study the effect of specific inhibition of DNA MeTase on cell growth, cellular proliferation rates were monitored both during the treatment and post treatment periods to determine the duration of the effect. […] During and following treatment, cells were counted. […] To determine whether the transient re-expression of p16^ink4A and growth-inhibitory effects induced by short term treatment with MG88 were due to the expansion of a less affected (less demethylated) population of cells within the treated population, or to rapid inactivation of p16^ink4A after MG88 withdrawal, single cell clones were isolated after treatment. Several MG88 clones were, in fact, p16^ink4A negative, confirming that the MG88 treatment produced a mixed population of p16^ink4A positive and negative cells.
# p16^ink4A protein = p16^ink4A protein by immunoprecipitation and Western blotting in T24 cells; format: cell-based, human; conditions: for induction of expression of p16^ink4A protein: 40 nM or 75 nM, 4 h each day up to 10 days
# Source text: The cyclin-dependent kinase inhibitor (CDKI) p16^ink4A regulates the transition from G1 to S-phases of the cell cycle (Serrano et al. (1993) Nature 366: 704-707). Inactivation of p16^ink4A is one of the most frequently observed abnormalities in human cancer (Serrano et al., supra). Transcriptional inactivation and associated hypermethylation of the p16^ink4A promote region have also been observed in virtually all types of cancer (Gonzales-Zulueta et al. (1995) Cancer Res. 55: 4531-4535; Merlo et al. (1995) Nat. Med. 7: 686-692; Costello et al. (1996) Cancer Res. 56: 2405-2410; Lo et al., Cancer Res. 56: 2721-2725). To investigate the effect of specifically reducing cellular DNA MeTase levels on the expression and methylation status of a silenced p16^ink4A gene, T24 human bladder cancer cells that contain a hypermethylated and silenced p16^ink4A gene were transfected with 40 nM or 75 nM MG88 or control oligonucleotide MG208 with 6.25 μg/ml lipofectin for four hours each day for up to 10 consecutive days. On days 3, 5, 8, and 10, p16^ink4A protein levels were then analyzed by immunoprecipitation followed by Western blotting analysis with a p16^ink4A protein-specific antibody (PharMingen). HeLa cells were used as a positive (+) control for p16^ink4A protein expression.
# (§2) Next, to determine whether de novo methylation and silencing of the re-expressed p16^ink4A gene occurred when DNA MeTase returned to normal levels, T24 cells were transfected for 10 consecutive days with either 40 or 75 nM or MG88 or MG208. […] Cell lysates of the T24 cells transfected for ten days were analyzed by Western blotting analysis for expression of DNA MeTase protein,p16^ink4A protein, and actin protein (as a control for equal loading) 3, 5, and 7 days after MG88 transfection.
# DNA MeTase protein [4] = assay: DNA MeTase protein levels by Western blotting in T24 cells; format: cell-based, human; conditions: for reduction in DNA MeTase protein levels: 20, 40 or 80 nM with lipofectin, 4 h on day 0 and day 1, harvest day 2
# Source text: as §1
# The MG88 and MG208 oligonucleotides were diluted to the desired concentration from a 0.1 mM stock solution in the transfection media. Cells were exposed to oligonucleotide plus lipofectin (or lipofectin only) for four hours on day 0 and four hours on day 1 (after each four hour treatment, cells were returned to complete media). On day 2 (i.e., 48 hours after the first treatment on day 0), cells were harvested, whole cell lysates were prepared, and DNA MeTase protein levels were analyzed by Western blotting analysis with a DNA MeTase-specific rabbit polyclonal antibody (generated according to standard techniques of a glutathione S -transferase fusion protein containing the first 10 kDa amino terminus from DNA methyltransferase protein). […] Equal loading of all lanes was confirmed by blotting for α-actin protein levels with an actin-specific rabbit polyclonal antibody (commercially available from Santa Cruz Biotech., Santa Cruz, Calif.).
# as §2
# human DNA MeTase mRNA = assay: Antisense inhibition of DNA MeTase mRNA (screen of phosphorothioate oligonucleotides); format: cell-based
# Source text: As shown in FIG. 1 the two […] regions were identified to be highly sensitive to antisense inhibition were targeted by MG88 having the sequence [NT] ID NO:1) (this oligonucleotide is targeted to the […] 5'UTR at nucleotides 532 to 513) and MG98 having the sequence [NT] ID NO:2) (this oligonucleotide is targeted to the […] 3'UTR at nucleotides 5218 to 5199). These oligonucleotides were chemically modified as follows: A equals 2'-deoxyriboadenosine; C equals 2'-deoxyribocytidine; G equals 2'-deoxyriboguanosine; T equals 2'-deoxyribothymidine; A equals riboadenosine; U equals uridine; C equals ribocytidine; and G equals riboguanosine. The underlined bases were 2'-methoxyribose substituted nucleotides. Non-underlined bases indicate deoxyribose nucleosides. The backbone of each oligonucleotide consisted of a phosphorothioate linkage between adjoining nucleotides.
# p21^WAF1 mRNA = assay: RNase protection assay for p21 mRNA in T24 cells; format: cell-based, human; conditions: 40 nM, 24 or 48 hours
# Experimental: Next, to determine if p21^WAF1 was induced at the transcriptional level, RNase protection assay were performed on cells treated with 40 nM of either MG88 or MG208 for either 24 or 48 hours. Total cellular RNA was isolated from the cells and analysed for p21 mRNA, p27 mRNA, and p18 mRNA using the human cell cycle-2 (hcc-2) multiprobe RNase protection kit commercially available from PharMingen, San Diego, Calif.). RNA loading was determined to be equal using the signals from two housekeeping genes, L32 and GAPDH.
# [5] = after 10 day treatment with 40 nM
molecule,measurement,setting,value
"Nc1ncn([C@H]2C[C@H](O)[C@@H](CO)O2)c(=O)n1 [5-aza-dC, 5-aza-2′-deoxycytidine]","p16 expression, Percentage of HeLa Cell Control",p16 tumor suppressor,11
same,toxicity of threshold concentrations necessary to inhibit DNA methyltransferase activity,[1],toxic to mammals
same,tumor volume,[2],showed less tumor volume increase
5′ UUCATAACCTCAGCATUGUC 3′ [MG2605],thymidylate synthase protein level compared to lipofectin only,thymidylate synthase,diminished levels of thymidylate synthase protein
5′-AAGCAT GAG CAC CGT TCUCC-3′ [MG88],demethylated CpG sites of p16^ink4A promoter (bisulfite sequencing),"p16^ink4A promoter; T24 cells, day 5 of treatment, 15 sites in all",15 CpG sites
same,re-methylated sites of p16^ink4A promoter,"p16^ink4A promoter; T24 cells, three days after cessation of treatment",13 of 15
same,demethylation of the p16^ink4A promoter region (MSP),p16^ink4A promoter; T24 cells,occurred as early as day 3 of MG88 treatment
same,methylation of p16^ink4A promoter in positive clone C4-5,p16^ink4A promoter; thirty days after a five day treatment (75 nM),completely non methylated at all CpG sites evaluated
same,reduction in DNA MeTase protein levels,DNA MeTase protein [3],dose-dependent reduction in DNA MeTase protein levels
same,phosphorylated forms of pRb,pRb,decrease in the amount of phosphorylated forms of pRb
same,p21^WAF1 protein level,p21^WAF1,increased directly with the reduction in DNA MeTase
same,"p21^WAF1 protein induction, dose response","p21^WAF1; 20, 40 or 80 nM, 24 hours",induced p21^WAF1 in a dose dependent fashion
same,antiproliferative and cell death effect,"T24 cells; 75 nM, 10 consecutive days",significant antiproliferative and cell death inducing effect
same,cell proliferation during treatment,T24 cells; 75 nM,dramatically inhibited cell proliferation
same,persistence of inhibition of cell proliferation,T24 cells; after 5 day treatment with 75 nM,approximately one week post-treatment
same,induction of expression of p16^ink4A protein,p16^ink4A protein,detected after 5 days of treatment
same,p16^ink4A protein level post-treatment,p16^ink4A protein; [5],barely detectable at day 7 post-treatment
same,reduction in DNA MeTase protein levels,DNA MeTase protein [4],dose-dependent reduction in DNA MeTase protein levels
same,return of DNA MeTase protein to control levels post-treatment,DNA MeTase protein [4]; [5],5 to 7 days
same,IC50,human DNA MeTase mRNA,40 nM
same,p21^WAF1 mRNA,p21^WAF1 mRNA,no increase in p21^WAF1 mRNA
"Nc1ncn([C@@H]2O[C@H](CO)[C@@H](O)[C@H]2O)c(=O)n1 [5-azaC, 5-aza-cytidine]",toxicity of threshold concentrations necessary to inhibit DNA methyltransferase activity,[1],toxic to mammals
5′-UUCATG TCA GCC AAG GCC AC-3′ [MG98],"p16 expression, Percentage of HeLa Cell Control",p16 tumor suppressor,4
same,tumor volume,[2],showed tumor volume increase
same,IC50,human DNA MeTase mRNA,45 nM
"5′-AACGAT CAG GAC CCT TGUCC-3′ (DNA AACGATCAGGACCCTTGUCC; sugars from the 5' end m4 d12 m4, all phosphorothioate, methylation of C not given here) [MG208, mismatch control oligonucleotide, reference compound]",p16^ink4A methylation status (bisulfite sequencing),"p16^ink4A promoter; T24 cells, days 3 and 5 of treatment",no effect on p16^ink4A methylation status
same,demethylation of the p16^ink4A promoter region (MSP),p16^ink4A promoter; T24 cells,no effect on methylation of the p16^ink4A gene
same,reduction in DNA MeTase protein levels,DNA MeTase protein [3],not
same,p21^WAF1 protein level,p21^WAF1,neither lipofectin nor MG208 had an effect
same,cell proliferation during treatment,T24 cells; 75 nM,only minimal growth inhibition
same,induction of expression of p16^ink4A protein,p16^ink4A protein,not detected
same,reduction in DNA MeTase protein levels,DNA MeTase protein [4],not
"5′-UUAATG TAA CCT AAG GUCAA-3′ (DNA UUAATGTAACCTAAGGUCAA; sugars from the 5' end m4 d12 m4, all phosphorothioate, methylation of C not given here) [MG207, negative control oligonucleotide]","p16 expression, Percentage of HeLa Cell Control",p16 tumor suppressor,1
"5′ GUCUTAAGCTCAACATUCUA 3′ [MG2606, reference compound]",thymidylate synthase protein level compared to lipofectin only,thymidylate synthase,not
